Structures are written as SMILES.

As a reminder, the IC50 is the point on the concentration scale where inhibition reaches its midpoint. Read a high IC50 as weaker potency.

ADAMTS4, sequence (O75173 213-685): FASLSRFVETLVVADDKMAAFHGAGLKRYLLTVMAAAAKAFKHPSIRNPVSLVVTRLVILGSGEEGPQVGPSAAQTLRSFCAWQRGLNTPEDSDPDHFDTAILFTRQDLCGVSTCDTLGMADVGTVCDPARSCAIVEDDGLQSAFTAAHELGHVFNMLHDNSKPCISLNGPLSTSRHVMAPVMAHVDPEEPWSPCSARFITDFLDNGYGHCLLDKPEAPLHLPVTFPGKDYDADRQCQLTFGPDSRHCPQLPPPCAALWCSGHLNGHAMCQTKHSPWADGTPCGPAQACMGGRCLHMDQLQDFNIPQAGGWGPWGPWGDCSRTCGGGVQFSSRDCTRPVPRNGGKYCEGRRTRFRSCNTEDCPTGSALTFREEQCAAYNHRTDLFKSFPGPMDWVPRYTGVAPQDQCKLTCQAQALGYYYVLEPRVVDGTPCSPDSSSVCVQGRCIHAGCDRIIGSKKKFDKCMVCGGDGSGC

This experiment deals with ADAMTS4 (Homo sapiens (Human), UniProt O75173). As to the kind of experiment: Selectivity assay for ADAMTS-7 modulators: ADAMTS4 (FRET substrate). To be noted: ADAMTS4 (R&D 4307-AD) 50 nM, substrate Dabcyl-EEVKAKVQPY-Glu(Edans)-NH2 1 μM, 120 min, 32° C. Format: biochemical. The essentials:
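Human ADAMTS4 with compound in DMSO, or DMSO control; reaction started by adding FRET substrate in reaction buffer. Fluorescence increase measured at substrate-specific wavelengths. IC50 derived from % inhibition of enzyme activity versus compound concentration.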
On to `Cc1ccc(-c2ccccc2C(=O)NCC2(c3ccccn3)NC(=O)NC2=O)cc1` (racemic) [Example 164, Rac-N-{[2,5-Dioxo-4-(Pyridin-2-Yl)Imidazolidin-4-Yl]Methyl}-4′-Methyl[Biphenyl]-2-Carboxamide], for which 14 µM corresponded to half-maximal inhibition (IC50).
On to `O=C1NC(=O)C(CNC(=O)c2ccccc2-c2ccc(Cl)cc2)(c2ncccc2C(F)(F)F)N1` (racemic) [Example 242, Rac-4′-Chloro-N-({2,5-Dioxo-4-[3-(Trifluoromethyl)Pyridin-2-Yl]Imidazolidin-4-Yl}Methyl)[Biphenyl]-2-Carboxamide], for which the midpoint of inhibition, the IC50, lay at 29 µM.
In the case of `Cc1cc(C2(CNC(=O)c3ccc(F)cc3-c3ccc(C(F)(F)F)cc3)NC(=O)NC2=O)n(C)n1` (racemic) [Example 276, Rac-N-{[4-(1,3-Dimethyl-1H-Pyrazol-5-Yl)-2,5-Dioxoimidazolidin-4-Yl]Methyl}-5-Fluoro-4′-(Trifluoromethyl)[Biphenyl]-2-Carboxamide], the midpoint of inhibition, the IC50, lay at 15 µM.
`Cc1cc(C2(CNC(=O)c3ccccc3-c3ccc(C(F)(F)F)cc3)NC(=O)NC2=O)n(C)n1` (stereo not drawn) [Example 302, Ent-N-{[4-(1,3-Dimethyl-1H-Pyrazol-5-Yl)-2,5-Dioxoimidazolidin-4-Yl]Methyl}-4′-(Trifluoromethyl)[Biphenyl]-2-Carboxamide]: the IC50 was determined as 7.6 µM.
Turning to `O=C1NC(=O)[C@](CNC(=O)c2ccccc2-c2ccc(C(F)(F)F)cc2)(C2CC2)N1` [Example 114, N-{[(4R)-4-Cyclopropyl-2,5-Dioxoimidazolidin-4-Yl]Methyl}-4′-(Trifluoromethyl)[Biphenyl]-2-Carboxamide], half-maximal inhibition (IC50) was put at 10.2 µM.
In the case of `O=C1NC(=O)[C@](CNC(=O)c2ccccc2-c2ccc(C(F)(F)F)nc2)(C2CC2)N1` [Example 224, N-{[(4R)-4-Cyclopropyl-2,5-Dioxoimidazolidin-4-Yl]Methyl}-2-[6-(Trifluoromethyl)Pyridin-3-Yl]Benzamide], inhibition was half-maximal at 19 µM (IC50).
The figure for `O=C1NC(=O)[C@](CNC(=O)c2ccccc2-c2ccc(OC(F)(F)F)cc2)(C2CC2)N1` [Example 21, N-{[(4R)-4-Cyclopropyl-2,5-Dioxoimidazolidin-4-Yl]Methyl}-4′-(Trifluoromethoxy)[Biphenyl]-2-Carboxamide] is over 50 µM; for `Cn1cncc1C1(CNC(=O)c2ccccc2-c2ccc(C(F)(F)F)cc2)NC(=O)NC1=O` (stereo not drawn) [Example 297, Ent-N-{[4-(1-Methyl-1H-Imidazol-5-Yl)-2,5-Dioxoimidazolidin-4-Yl]Methyl}-4′-(Trifluoromethyl)[Biphenyl]-2-Carboxamide] it is 4.1 µM; for `O=C1NC(=O)C(CNC(=O)c2ccc(F)c(F)c2-c2ccc(C(F)(F)F)cc2)(C2(F)CC2)N1` (single isomer, unassigned; ent-5) [Example 298, Ent-5,6-Difluoro-N-{[4-(1-Fluorocyclopropyl)-2,5-Dioxoimidazolidin-4-Yl]Methyl}-4′-(Trifluoromethyl)[Biphenyl]-2-Carboxamide] it is 9.3 µM.
`CCCC1(CNC(=O)c2ccccc2-c2ccc(C(F)(F)F)nc2)NC(=O)NC1=O` (racemic) [Example 57, Rac-N-[(2,5-Dioxo-4-Propylimidazolidin-4-Yl)Methyl]-2-[6-(Trifluoromethyl)Pyridin-3-Yl]Benzamide] yielded an IC50 of over 50 µM.
As for `CS(=O)(=O)c1ccc(-c2ccccc2C(=O)NC[C@@]2(C3CC3)NC(=O)NC2=O)cc1` [Example 217, N-{[(4R)-4-Cyclopropyl-2,5-Dioxoimidazolidin-4-Yl]Methyl}-4′-(Methanesulfonyl)[1,1′-Biphenyl]-2-Carboxamide], half-maximal inhibition (IC50) was put at 16 µM.
For `O=C1NC(=O)C(CNC(=O)c2ccccc2-c2ccc(C(F)(F)F)cc2)(c2ccccc2)N1` (racemic) [Example 12, Rac-N-[(2,5-Dioxo-4-Phenylimidazolidin-4-Yl)Methyl]-4′-(Trifluoromethyl)[Biphenyl]-2-Carboxamide], the IC50 is over 50 µM.
The compound `O=C1NC(=O)[C@](CNC(=O)c2cc(F)c(F)cc2-c2ccc(C3CC3(F)F)cc2)(C2CC2)N1` (stereo partly drawn) [Example 144, N-{[(4R)-4-Cyclopropyl-2,5-Dioxoimidazolidin-4-Yl]Methyl}-4′-(2,2-Difluorocyclopropyl)-4,5-Difluoro[1,1′-Biphenyl]-2-Carboxamide] had an IC50 of 25 µM.
In turn, `Cc1ccc(-c2ccccc2C(=O)NCC2(C3CCC3)NC(=O)NC2=O)cc1` (stereo not drawn) [Example 236, Ent-N-[(4-Cyclobutyl-2,5-Dioxoimidazolidin-4-Yl)Methyl]-4′-Methyl[Biphenyl]-2-Carboxamide] showed an IC50 of 15 µM.
Turning to `O=C1NC(=O)C(CNC(=O)c2ccccc2-c2ccc(C(F)(F)F)cc2)(c2cnccn2)N1` (racemic) [Example 30, Rac-N-{[2,5-Dioxo-4-(Pyrazin-2-Yl)Imidazolidin-4-Yl]Methyl}-4′-(Trifluoromethyl)[Biphenyl]-2-Carboxamide], inhibition was half-maximal at 45 µM (IC50).
As for `O=C1NC(=O)[C@](CNC(=O)c2ccccc2-c2ccc(Cl)cc2)(C2CC2)N1` [Example 220, 4′-Chloro-N-{[(4R)-4-Cyclopropyl-2,5-Dioxoimidazolidin-4-Yl]Methyl}[1,1′-Biphenyl]-2-Carboxamide], the figure is 7.8 µM.
Compound `Cc1nocc1C1(CNC(=O)c2ccccc2-c2ccc(C(F)(F)F)nc2)NC(=O)NC1=O` (racemic) [Example 41, Rac-N-{[4-(3-Methyl-1,2-Oxazol-4-Yl)-2,5-Dioxoimidazolidin-4-Yl]Methyl}-2-[6-(Trifluoromethyl)Pyridin-3-Yl]Benzamide] registered an IC50 of 30 µM.
As for `O=C1NC(=O)[C@](CNC(=O)c2ccc(Cl)cc2-c2ccc(C(F)(F)F)cc2)(C2CC2)N1` [Example 216, 5-Chloro-N-{[(4R)-4-Cyclopropyl-2,5-Dioxoimidazolidin-4-Yl]Methyl}-4′-(Trifluoromethyl)[1,1′-Biphenyl]-2-Carboxamide], the figure is 9.1 µM; as for `Cn1ccnc1C1(CNC(=O)c2cc(F)ccc2-c2ccc(C3CC3(F)F)cc2)NC(=O)NC1=O` (stereo not drawn) [Example 139, 4′-(2,2-Difluorocyclopropyl)-4-Fluoro-N-{[4-(1-Methyl-1H-Imidazol-2-Yl)-2,5-Dioxoimidazolidin-4-Yl]Methyl}[1,1′-Biphenyl]-2-Carboxamide], 2.1 µM.
For the compound `Cc1ccc(-c2c(C)cccc2C(=O)NCC2(c3nccn3C)NC(=O)NC2=O)cc1` (single isomer, unassigned; ent-4) [Example 134, Ent-4′,6-Dimethyl-N-{[4-(1-Methyl-1H-Imidazol-2-Yl)-2,5-Dioxoimidazoidin-4-Yl]Methyl}[1,1′-Biphenyl]-2-Carboxamide], the IC50 worked out at 1.4 µM.
The figure for `Cc1scnc1C1(CNC(=O)c2ccc(F)cc2-c2ccc(Cl)cc2)NC(=O)NC1=O` (racemic) [Example 169, Rac-4′-Chloro-5-Fluoro-N-{[4-(5-Methyl-1,3-Thiazol-4-Yl)-2,5-Dioxoimidazolidin-4-Yl]Methyl}[Biphenyl]-2-Carboxamide] is 8.5 µM; for `Cn1ccnc1C1(CNC(=O)c2cccc(F)c2-c2ccc(C(F)(F)F)cc2)NC(=O)NC1=O` (single isomer, unassigned; ent-6) [Example 163, Ent-6-Fluoro-N-{[4-(1-Methyl-1H-Imidazol-2-Yl)-2,5-Dioxoimidazolidin-4-Yl]Methyl}-4′-(Trifluoromethyl)[Biphenyl]-2-Carboxamide] it is 1.3 µM.
In the case of `O=C1NC(=O)C(CNC(=O)c2ccc(F)cc2-c2ccc(C(F)(F)F)cc2)(C2(F)CC2)N1` (racemic) [Example 252, Rac-5-Fluoro-N-{[4-(1-Fluorocyclopropyl)-2,5-Dioxoimidazolidin-4-Yl]Methyl}-4′-(Trifluoromethyl)[Biphenyl]-2-Carboxamide], half-maximal inhibition (IC50) was put at 41 µM.
With `CC(C)(C)c1ccc(-c2cc(F)ccc2C(=O)NC[C@@]2(C3CC3)NC(=O)NC2=O)cc1` [Example 124, 4′-Tert-Butyl-N-{[(4R)-4-Cyclopropyl-2,5-Dioxoimidazolidin-4-Yl]Methyl}-5-Fluoro[Biphenyl]-2-Carboxamide], the IC50 turned out to be 42 µM.
For `Cc1scnc1C1(CNC(=O)c2ccccc2-c2ccc(C(F)(F)F)cc2)NC(=O)NC1=O` (single isomer, unassigned) [Example 2, Ent-N-{[4-(5-Methyl-1,3-Thiazol-4-Yl)-2,5-Dioxoimidazolidin-4-Yl]Methyl}-4′-(Trifluoromethyl)[Biphenyl]-2-Carboxamide], the IC50 is over 50 µM.
The compound `O=C1NC(=O)C(CNC(=O)c2ccccc2-c2ccc(C(F)(F)F)cc2)(C2CCCC2)N1` (racemic) [Example 48, Rac-N-[(4-Cyclopentyl-2,5-Dioxoimidazolidin-4-Yl)Methyl]-4′-(Trifluoromethyl)[Biphenyl]-2-Carboxamide] had an IC50 of over 50 µM.
For `O=C1NC(=O)[C@](CNC(=O)c2ccc(Cl)cc2-c2ccc(Cl)cc2)(C2CC2)N1` [Example 232, 4′,5-Dichloro-N-{[(4R)-4-Cyclopropyl-2,5-Dioxoimidazolidin-4-Yl]Methyl}[1,1′-Biphenyl]-2-Carboxamide], the IC50 is 3.7 µM.
Turning to `Cc1ccc(-c2ccccc2C(=O)NCC2(c3nccn3C)NC(=O)NC2=O)cc1` (single isomer, unassigned; ent-4) [Example 146, Ent-4′-Methyl-N-{[4-(1-Methyl-1H-Imidazol-2-Yl)-2,5-Dioxoimidazolidin-4-Yl]Methyl}[Biphenyl]-2-Carboxamide], 1.9 µM corresponded to half-maximal inhibition (IC50).
`O=C1NC(=O)C(CNC(=O)c2cccc(F)c2-c2ccc(C(F)(F)F)cc2)(C2(F)CC2)N1` (single isomer, unassigned; ent-6) [Example 300, Ent-6-Fluoro-N-{[4-(1-Fluorocyclopropyl)-2,5-Dioxoimidazolidin-4-Yl]Methyl}-4′-(Trifluoromethyl)[Biphenyl]-2-Carboxamide] registered an IC50 of 23 µM.
`O=C1NC(=O)[C@](CNC(=O)c2cc(F)ccc2-c2ccc(C(F)(F)F)cc2)(C2CC2)N1` [Example 121, N-{[(4R)-4-Cyclopropyl-2,5-Dioxoimidazolidin-4-Yl]Methyl}-4-Fluoro-4′-(Trifluoromethyl)[Biphenyl]-2-Carboxamide] returned an IC50 of 5.9 µM.

For the origin of these results see US12398120B2, “Substituted hydantoinamides as ADAMTS7 antagonists” (BAYER AKTIENGESELLSCHAFT, priority 2019, dated 2025).
